Laboratory results published in PMC9143880, “Improving Antimicrobial Activity and Physico-Chemical Properties by Isosteric Replacement of 2-Aminothiazole with 2-Aminooxazole” (Pharmaceuticals, 2022).
≈ marks a conversion by molar mass, not a printed value. Like-named read-outs stand apart in the source and are kept apart here.

Experiments:
[1] = tested on: M. smegmatis DSM 43465 (ATCC 607); assay: Antimycobacterial MIC, microdilution broth / resazurin; format: cell-based; settings: Mycolicibacterium smegmatis; resazurin after 48 h; read-out: MIC M. smegmatis
[2] = tested on: Acinetobacter baumannii DSM 30007 (ATCC 19606); assay: Antibacterial microdilution broth (EUCAST); format: cell-based; settings: Acinetobacter baumannii; 24h incubation; read-out: MIC AB
[3] = tested on: Pseudomonas aeruginosa CCM 3955 (ATCC 27853); assay: Antibacterial microdilution broth (EUCAST); format: cell-based; settings: Pseudomonas aeruginosa; 72h incubation; read-out: MIC PA
[4] = tested on: Escherichia coli CCM 3954 (ATCC 25922); assay: Antibacterial microdilution broth (EUCAST); format: cell-based; settings: Escherichia coli; 24h incubation; read-out: MIC EC
[5] = tested on: Lichtheimia corymbifera CCM 8077; assay: Antifungal microdilution broth (EUCAST); settings: Lichtheimia corymbifera
[6] = tested on: Candida albicans CCM 8320 (ATCC 24433); assay: Antifungal microdilution broth (EUCAST); settings: Candida albicans; for MIC: 24 h
[7] = tested on: Candida krusei CCM 8271 (ATCC 6258); assay: Antifungal microdilution broth (EUCAST); settings: Pichia kudriavzevii, 24 h
[8] = tested on: M. aurum DSM 43999 (ATCC 23366); assay: Antimycobacterial MIC, microdilution broth / resazurin; format: cell-based; settings: Mycolicibacterium aurum, read-out: MIC M. aurum
[9] = tested on: Staphylococcus aureus subsp. aureus CCM 4223 (ATCC 29213); assay: Antibacterial microdilution broth (EUCAST); format: cell-based; settings: Staphylococcus aureus; 24h incubation; read-out: MIC SA
[10] = tested on: Staphylococcus aureus subsp. aureus (MRSA) CCM 4750 (ATCC 43300); assay: Antibacterial microdilution broth (EUCAST); format: cell-based; settings: Staphylococcus aureus; 24h incubation; read-out: MIC MRSA
[11] = tested on: Trichophyton interdigitale CCM 8377 (ATCC 9533); assay: Antifungal microdilution broth (EUCAST); settings: Trichophyton interdigitale
[12] = tested on: Enterococcus faecalis CCM 4224 (ATCC 29212); assay: Antibacterial microdilution broth (EUCAST); format: cell-based; settings: Enterococcus faecalis; 24h incubation; read-out: MIC EF
[13] = tested on: Aspergillus fumigatus ATCC 204305; assay: Antifungal microdilution broth (EUCAST); settings: Aspergillus fumigatus
[14] = tested on: Staphylococcus epidermidis CCM 4418 (ATCC 12228); assay: Antibacterial microdilution broth (EUCAST); format: cell-based; settings: Staphylococcus epidermidis; 24h incubation; read-out: MIC SE
[15] = tested on: Candida parapsilosis CCM 8260 (ATCC 22019); assay: Antifungal microdilution broth (EUCAST); settings: Lodderomyces parapsilosis
[16] = tested on: HepG2 cells; assay: HepG2 cytotoxicity screening (CellTiter 96); format: cell-based, human; settings: Homo sapiens, HepG2, 24 h, 24 h incubation, CellTiter 96; * above highest tested concentration; ** limited by insolubility in medium
[17] = tested on: Mycobacterium tuberculosis H37Ra ITM-M006710 (ATCC 9431); assay: Antimycobacterial MIC, microdilution broth / Alamar Blue (resazurin); format: cell-based; settings: Mycobacterium tuberculosis, 120 h, Middlebrook 7H9, resazurin after 120 h; read-out: Mtb H37Ra MIC
[18] = RP-UHPLC lipophilicity parameter log k’w; format: physicochemical; settings: for log k’w: RP-UHPLC, acetonitrile/water, log k extrapolated to 0% acetonitrile; for logkw: experimental lipophilicity parameter
Text: Lipophilicity and water solubility of the drug candidates are important parameters as they are often directly related to their ADME properties in the organism. Lipophilicity is usually expressed as the logarithm of the partition coefficient in n-octanol/water (log P). Due to its laborious determination, especially in the HTS screening, other experimental methods such as RP-HPLC log k’w or purely computational approaches such as Clog P were proposed and have been established as reasonable estimators of true lipophilicity. To investigate the changes in lipophilicity upon introduction of oxazole in the title compounds, we determined the log k’w of all derivatives and compared respective values among the pairs.
The log k of the synthesized compounds was measured using the same instrument (single measurement per concentration), software, and column as was used in the purity evaluation. Working solutions were diluted as described above for purity determination. The log k parameter was calculated after the UHPLC measurements using isocratic mode with mobile phase acetonitrile (B)/water (A) in a set of concentrations of 40, 45, 50% and 20, 30, 40% B for subtype I and subtype II, respectively.

[19] = tested on: Candida tropicalis CCM 8264 (ATCC 750); assay: Antifungal microdilution broth (EUCAST); settings: Candida tropicalis, 24 h
[20] = tested on: Aspergillus flavus CCM 8363; assay: Antifungal microdilution broth (EUCAST); settings: Aspergillus flavus
[21] = CCM8077, 24 h, read-out: MIC LC
[22] = ATCC204305, 24 h, read-out: MIC AF
[23] = CCM8363, 24 h, read-out: MIC AFla
[24] = read-out: MIC (visual detection)

Structure (SMILES)	MIC [1] [µg/mL]	melting point [°C]	MIC [2] [µM]	MIC [3] [µM]	MIC [4] [µM]	MIC [5, 21] [µM]	MIC ([6]; read-out: MIC CA) [µM]	MIC ([7]; read-out: MIC CK) [µM]	MIC [9] [µM]	MIC [10] [µM]	MIC ([11]; 72 h, read-out: MIC TI) [µM]	MIC [12] [µM]	MIC [13, 22] [µM]	MIC [14] [µM]	MIC ([15]; 24 h, read-out: MIC CP) [µM]	IC50 [16] [µM]	MIC [17] [µg/mL]	log k’w [18]	logkw [18]	MIC ([19]; read-out: MIC CT) [µM]	also measured
O=C(Nc1nc(-c2ccccc2)co1)c1ccncc1 [Compound 13b]	125 (≈ 471 µM)	168 to 171	> 500	> 500	> 500	> 500	> 500	> 500	500 (≈ 133 µg/mL)	> 500	500	> 500	> 500	125 (≈ 33.2 µg/mL)	> 500	879	31.2 (≈ 118 µM)	1.163	1.163	> 500	MIC ([8]; 72 h): 31.2 µg/mL (≈ 118 µM); MIC [20, 23]: > 500 µM
O=C(Nc1ncco1)c1ccccn1 [Compound 1b]	125 (≈ 661 µM)	129 to 131	> 500	> 500	> 500	> 500	> 500	> 500	125 (≈ 23.6 µg/mL)	250 (≈ 47.3 µg/mL)	> 500	> 500	> 500	125 (≈ 23.6 µg/mL)	> 500	> 1000	62.5 (≈ 330 µM)	0.854	0.8542	> 500	MIC ([8]; resazurin after 72 h): 31.2 µg/mL (≈ 165 µM); MIC [20, 23]: > 500 µM
C[C@@H](c1ncncc1F)[C@](O)(Cn1cncn1)c1ccc(F)cc1F [voriconazole, reference compound]	–	–	–	–	–	–	–	–	–	–	–	–	–	–	–	–	–	–	–	–	IC50 ([5]; CCM8077, 48 h, read-out: IC50 (spectrophotometric detection)): 8 µg/mL (≈ 22.9 µM); MIC ([5]; CCM8077, 48 h, read-out: MIC (visual detection)): > 16 µg/mL; MIC [6, 24]: > 16 µg/mL; IC50 ([6]; ATCC24433|CCM8320, 24 h, read-out: IC50 (spectrophotometric detection)): 0.03 µg/mL (≈ 0.0859 µM); MIC [7, 24]: > 16 µg/mL; IC50 ([11]; ATCC9533|CCM8377, 48 h, read-out: IC50 (spectrophotometric detection)): 1 µg/mL (≈ 2.86 µM); MIC ([11]; ATCC9533|CCM8377, 48 h, read-out: MIC (visual detection)): > 16 µg/mL; IC50 ([13]; ATCC204305, 48 h, read-out: IC50 (spectrophotometric detection)): 0.25 µg/mL (≈ 0.716 µM); MIC ([13]; ATCC204305, 48 h, read-out: MIC (visual detection)): 1 µg/mL; IC50 ([15]; ATCC22019|CCM8260, 24 h, read-out: IC50 (spectrophotometric detection)): 0.03 µg/mL (≈ 0.0859 µM); MIC ([15]; ATCC22019|CCM8260, 24 h, read-out: MIC (visual detection)): > 16 µg/mL; MIC [19, 24]: > 16 µg/mL; IC50 ([20]; CCM8363, 48 h, read-out: IC50 (spectrophotometric detection)): 1 µg/mL (≈ 2.86 µM); MIC ([20]; CCM8363, 48 h, read-out: MIC (visual detection)): > 16 µg/mL
O=C(Nc1ncco1)c1cnc2ccccc2n1 [Compound 10b]	62.5 (≈ 260 µM)	163 to 165	> 500	> 500	> 500	500	500	250	500 (≈ 120 µg/mL)	> 500	250	> 500	500	500 (≈ 120 µg/mL)	500	> 1000	15.6 (≈ 65 µM)	1.493	1.493	500	MIC ([8]; 72 h): 15.6 µg/mL (≈ 65 µM); MIC [20, 23]: > 500 µM
